Data from article PMC6009956, “Design, synthesis and biological activity of N^4-phenylsubstituted-7H-pyrrolo[2,3-d]pyrimidin-4-amines as dual inhibitors of aurora kinase A and epidermal growth factor receptor kinase” (Journal of Enzyme Inhibition and Medicinal Chemistry, 2017).
Read-outs that look alike come from different tables or passages of the source.

Tests used:
[1] = target: T1, aurora A kinase (AURKA) (Homo sapiens, UniProt O14965); experiment: ADP-Glo kinase assay, Aurora A; format: biochemical
T1 construct: purchased BPS Bioscience (assay run externally by the vendor)
T1 sequence (O14965 1-403): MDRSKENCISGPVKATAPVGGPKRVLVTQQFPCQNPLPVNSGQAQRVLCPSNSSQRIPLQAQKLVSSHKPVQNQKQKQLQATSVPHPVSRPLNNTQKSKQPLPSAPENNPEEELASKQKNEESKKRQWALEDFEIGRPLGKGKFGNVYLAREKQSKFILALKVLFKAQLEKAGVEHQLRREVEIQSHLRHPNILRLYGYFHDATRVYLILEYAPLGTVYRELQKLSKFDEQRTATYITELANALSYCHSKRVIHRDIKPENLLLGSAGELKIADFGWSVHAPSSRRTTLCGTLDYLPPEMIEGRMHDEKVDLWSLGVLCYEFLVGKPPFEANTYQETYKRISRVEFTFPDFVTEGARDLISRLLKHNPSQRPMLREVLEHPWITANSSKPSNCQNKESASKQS

[2] = target: T2, AURKB (Homo sapiens, UniProt Q96GD4); experiment: DiscoverX competition binding assay, AURKB; conditions: read-out: Binding constant (Kd) AURKB
T2 construct: purchased DiscoverX Corporation (assay run externally by the vendor)
Procedure: (§1) The assay was performed externally at DiscoverX Corporation using a competition binding assay that quantitatively measures the ability of a compound to compete with an immobilised, active-site directed ligand[24]. The assay is performed by combining three components: DNA-tagged kinase, immobilised ligand and a test compound. The ability of the test compound to compete with the immobilised ligand was measured via quantitative PCR of the DNA tag. An 11-point 3-fold serial dilution of each test compound was prepared in 100% of DMSO at 100× final test concentration and subsequently diluted to 1× in the assay (final DMSO concentration = 1%). […] Binding constants (Kd) were calculated with a standard dose-response curve using the Hill equation.
(§2) Binding Affinities for EGFR, AURKA and AURKB
(§3) The assay was performed externally at DiscoverX Corporation using a competition binding assay that quantitatively measures the ability of a compound to compete with an immobilized, active-site directed ligand for target kinases AURKA, AURKB and EGFR.23 The assay is performed by combining three components: DNA-tagged kinase; immobilized ligand; and a test compound. The ability of the test compound to compete with the immobilized ligand was measured via quantitative PCR of the DNA tag. […] Compound Kds were determined using a compound top […]

[3] = system: BHY cells; experiment: Cell killing, PI staining and FACS, BHY; format: cell-based
Procedure: (§4) FADU, BHY, SAS and CAL cell lines were obtained from ATCC-LGC and were cultured in DMEM (Invitrogen, Germany) supplemented with 10% of heat activated bovine serum (FBS, PAA, Germany), 1% of glutamine, 1% of penicillin-streptomycin (Invitrogen, Germany). To measure proliferation, SCCHN cells were split, reseeded (5 × 10^5 in 25 cm^2 flasks) and counted at the indicated time points. Cells were then replated at the initial density. The fold increase in cell number was calculated, all given results are based on triplicate experiments. To assess cell death 5 × 10^5 cells were stained with propidium iodide (PI, Sigma, Germany). Following incubation, cells were washed, resuspended in PBS, and analysed by flow cytometry. The fraction of PI-positive cells is reported as dead cell fraction.
(§5) Figure 3. […] Cells were incubated with compound 2 for 48 h and then subjected to PI staining and FACS analysis. PI-positive cell fraction as measure of cell death is reported. (B) Four SCCHN cell lines were incubated with 100 μM of compound 2 and counted on the indicated days. Experiments in triplicates, fold growth shown. (C) EGFR expression of SCCHN cell lines. EGFR high and low as detected by western blot analysis (D) The SCCHN cell lines were incubated with 100 μM of compound 2 for 72 h. Percent PI positive cells are given. Experiments in triplicates.

[4] = system: BHY cells; experiment: Proliferation (cell counting), BHY; format: cell-based; conditions: 100 µM
Procedure: as §4, §5

[5] = system: SAS cells; experiment: Proliferation (cell counting), SAS; format: cell-based; conditions: 100 µM
Procedure: as §4, §5

[6] = target: EGFR (Homo sapiens, UniProt P00533); experiment: DiscoverX competition binding assay, EGFR; design: purchased DiscoverX Corporation (assay run externally by the vendor); conditions: read-out: Binding constant (Kd) EGFR
Procedure: as §1, §2, §3

EGFR, sequence (P00533 25-1210): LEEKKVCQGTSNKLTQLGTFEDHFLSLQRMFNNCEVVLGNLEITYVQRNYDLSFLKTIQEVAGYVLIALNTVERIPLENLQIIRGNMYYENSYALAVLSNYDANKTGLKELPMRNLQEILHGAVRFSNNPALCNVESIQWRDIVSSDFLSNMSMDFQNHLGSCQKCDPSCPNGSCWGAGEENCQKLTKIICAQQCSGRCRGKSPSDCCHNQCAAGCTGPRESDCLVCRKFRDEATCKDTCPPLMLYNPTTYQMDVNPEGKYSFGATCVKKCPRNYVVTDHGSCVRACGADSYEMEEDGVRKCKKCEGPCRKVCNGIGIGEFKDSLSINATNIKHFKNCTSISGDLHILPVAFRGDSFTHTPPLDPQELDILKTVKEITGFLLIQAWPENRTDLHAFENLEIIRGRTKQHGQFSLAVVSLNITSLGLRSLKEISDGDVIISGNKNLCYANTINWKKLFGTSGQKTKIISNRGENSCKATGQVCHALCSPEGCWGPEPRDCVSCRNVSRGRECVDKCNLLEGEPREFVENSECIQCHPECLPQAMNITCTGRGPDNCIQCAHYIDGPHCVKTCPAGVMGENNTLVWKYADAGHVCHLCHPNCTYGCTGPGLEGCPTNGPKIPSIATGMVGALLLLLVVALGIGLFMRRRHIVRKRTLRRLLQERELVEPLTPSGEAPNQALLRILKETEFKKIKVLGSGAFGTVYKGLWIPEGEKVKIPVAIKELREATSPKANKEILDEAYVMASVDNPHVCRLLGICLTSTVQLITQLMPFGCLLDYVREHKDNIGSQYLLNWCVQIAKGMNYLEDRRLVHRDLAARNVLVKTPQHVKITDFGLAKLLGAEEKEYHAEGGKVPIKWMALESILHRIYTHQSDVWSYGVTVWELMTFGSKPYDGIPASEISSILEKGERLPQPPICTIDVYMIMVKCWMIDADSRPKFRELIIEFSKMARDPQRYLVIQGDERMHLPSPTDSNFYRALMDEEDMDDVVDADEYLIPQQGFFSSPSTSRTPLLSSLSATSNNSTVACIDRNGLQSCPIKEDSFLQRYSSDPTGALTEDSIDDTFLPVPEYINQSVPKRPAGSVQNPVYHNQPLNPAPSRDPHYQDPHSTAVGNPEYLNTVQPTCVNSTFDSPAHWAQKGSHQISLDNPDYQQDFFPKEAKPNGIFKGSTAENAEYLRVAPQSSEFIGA
T2 sequence (Q96GD4 whole entry): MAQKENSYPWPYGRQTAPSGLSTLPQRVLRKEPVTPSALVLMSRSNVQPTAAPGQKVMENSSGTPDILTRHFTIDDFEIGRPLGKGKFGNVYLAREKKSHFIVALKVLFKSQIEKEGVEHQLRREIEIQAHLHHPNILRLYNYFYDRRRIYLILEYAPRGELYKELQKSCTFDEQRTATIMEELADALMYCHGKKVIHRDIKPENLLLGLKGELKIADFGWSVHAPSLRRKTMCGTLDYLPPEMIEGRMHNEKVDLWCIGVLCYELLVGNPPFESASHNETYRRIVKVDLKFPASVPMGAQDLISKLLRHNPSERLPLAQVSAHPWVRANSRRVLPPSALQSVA

In the case of `Brc1cccc(Nc2ncnc3[nH]ccc23)c1` [Compound 2, N^4-(3-bromophenyl)-7H-pyrrolo[2,3-d]pyrimidine-4-amine], the IC50 ([1]; 10 µM ATP, triplicate, read-out: AURKA IC50 ± SD) is reported as 1990 ± 50 nM, the IC50 ([1]; 10 µM ATP/0.2 mg/ml Kemptide, read-out: Aurora A IC50 (dose-response curve, supplement)) is reported as 2000 nM and the “Aurora A % Activity Set1” value ([1]; Log[nM] 0) is reported as 107%. The “Aurora A % Activity Set2” value ([1]; Log[nM] 0) was 94%, the “Aurora A % Activity Set3” value ([1]; Log[nM] 0) was 94% and the “Aurora A % Activity Set1” value ([1]; Log[nM] 1.0) was 109%. For the same molecule, the “Aurora A % Activity Set2” value ([1]; Log[nM] 1.0) was 97%, the “Aurora A % Activity Set3” value ([1]; Log[nM] 1.0) was 96% and the “Aurora A % Activity Set1” value ([1]; Log[nM] 1.5) was 109%. The “Aurora A % Activity Set2” value ([1]; Log[nM] 1.5) was 96%, the “Aurora A % Activity Set3” value ([1]; Log[nM] 1.5) was 101% and the “Aurora A % Activity Set1” value ([1]; Log[nM] 2.0) was 102%. The “Aurora A % Activity Set2” value ([1]; Log[nM] 2.0) was 97%, the “Aurora A % Activity Set3” value ([1]; Log[nM] 2.0) was 105% and the “Aurora A % Activity Set1” value ([1]; Log[nM] 2.5) was 94%. The “Aurora A % Activity Set2” value ([1]; Log[nM] 2.5) was 88%, the “Aurora A % Activity Set3” value ([1]; Log[nM] 2.5) was 95% and the “Aurora A % Activity Set1” value ([1]; Log[nM] 3.0) was 70%. The “Aurora A % Activity Set2” value ([1]; Log[nM] 3.0) was 66%, the “Aurora A % Activity Set3” value ([1]; Log[nM] 3.0) was 69% and the “Aurora A % Activity Set1” value ([1]; Log[nM] 3.5) was 35%. For the same molecule, the “Aurora A % Activity Set2” value ([1]; Log[nM] 3.5) was 34%, the “Aurora A % Activity Set3” value ([1]; Log[nM] 3.5) was 34% and the “Aurora A % Activity Set1” value ([1]; Log[nM] 4.0) was 16%. The “Aurora A % Activity Set2” value ([1]; Log[nM] 4.0) was 14%, the “Aurora A % Activity Set3” value ([1]; Log[nM] 4.0) was 14% and the “Aurora A % Activity Set1” value ([1]; Log[nM] 4.5) was 6%. The “Aurora A % Activity Set2” value ([1]; Log[nM] 4.5) was 5%, the “Aurora A % Activity Set3” value ([1]; Log[nM] 4.5) was 5% and the “Aurora A % Activity Set1” value ([1]; Log[nM] 5.0) was 5%. The “Aurora A % Activity Set2” value ([1]; Log[nM] 5.0) was 5%, the “Aurora A % Activity Set3” value ([1]; Log[nM] 5.0) was 5% and the Kd [2] was 4800 nM. The “Cell killing (PI positive cells)” value ([3]; 100 µM, 72 h) was “efficient cell killing”, the IC50 ([3]; 48 h, read-out: IC50 cellular killing (PI-positive fraction)) was 150000 nM and the “Cell growth (fold growth)” value [4] was “completely inhibited cell growth”. For the same molecule, the “Cell growth (fold growth)” value [5] was “completely inhibited cell growth” and the Kd [6] was 67 nM.
